Data reported in publication PMC11272598, “RG7774 (Vicasinabin), an orally bioavailable cannabinoid receptor 2 (CB2R) agonist, decreases retinal vascular permeability, leukocyte adhesion, and ocular inflammation in animal models” (Frontiers in Pharmacology, 2024).
In brackets after ≈: the same amount, converted by molar mass.

What was measured:
[1] = Kinetic lyophilization solubility assay (LYSA); type: physicochemical; conditions: aqueous buffer, 0.05 M PBS pH 6.5
Description: RG7774 samples were prepared in duplicate from 10 mM DMSO stock solutions. DMSO was evaporated for 1 h using a centrifugal vacuum evaporator (Genevac Technologies, UK) and the residue was dissolved in 0.05 M PBS (pH 6.5), stirred for 1 h, and shaken for 2 h. Solutions were filtered 12 h later using a microtiter filter plate (MSDV N65; Merck Millipore, MA, USA). The filtrate and its 1:10 dilution were analyzed by direct ultraviolet (UV) measurement or high-performance liquid chromatography with UV spectroscopy (HPLC-UV). […] The measurement range for a compound with molecular weight 500 was 0 to 666 μg/mL.

[2] = tested on: LPS-induced leukocyte adhesion; experiment: LPS-induced leukocyte adhesion in mice with EIU (IVM); type: in vivo, BALB/c mice; conditions: 6 h after LPS
Description: Male BALB/c mice aged 8–10 weeks and weighing 21–26 g (Charles River, QC, Canada) were housed in individually ventilated Allentown cages (Allentown Inc., NJ, United States). Maximum density was n = 5 per cage, with the same litter and sex. Male Lewis rats aged 7–10 weeks and weighing 200–300 g (Charles River, QC, Canada) were housed in static cages (Allentown Inc., NJ, United States), n = 2 per cage with the same litter and sex. Both mice and rats were maintained in a controlled environment (21°C–22°C, humidity range 40%–60%, and a 12 h light/dark cycle), with unrestricted access to food and water. All experiments were conducted in accordance with the standards and procedures of the Canadian Council on Animal Care ([CCAC, 2024]) and were approved by the Dalhousie University Committee on Laboratory Animals. The protocol #13-027 was approved for experimental work in mice. […] All experiments were performed and are reported in accordance with the ARRIVE guidelines ([Kilkenny et al., 2010]; [McGrath et al., 2010]).
Mice and rats were anesthetized with 5% isoflurane in 100% O2 and intraperitoneal (IP) injection of sodium pentobarbital (65 mg/kg), respectively, before receiving IVT injections of sterile 0.9% saline solution (control) or 125 ng/μL LPS (L8274, Sigma-Aldrich, St. Louis, MO, United States) diluted in 0.9% saline. Injections were administered through the pars plana using a 30-gauge needle and Hamilton syringe (Hamilton Company, Reno, NV, United States) with the assistance of a WILD M37 dissecting microscope (Leitz Canada, Vaughan, ON, Canada). Mice received 2 μL of the LPS solution; rats received 5 μL. To avoid touching the lens or damaging the eye, the tip of the needle was directed toward the posterior pole and only the beveled tip (2–3 mm) was allowed to enter the vitreal cavity. […]
IVM was used for in vivo investigations of LPS-induced leukocyte recruitment as previously described ([Toguri et al., 2014]). […] The depth of anesthesia throughout the procedure was assessed by the absence of a toe-pinch reflex. […]

## Cn1nnnc1Cn1nnc2c(N3CC[C@H](O)C3)nc(C(C)(C)C)nc21 [RG7774, (S)-1-(5-tert-butyl-3-[(1-methyl-1H-tetrazol-5-yl)methyl]-3H-[1,2,3]triazolo[4,5-d]pyrimidin-7-yl)pyrrolidin-3-ol]
[1]
  solubility kinetic: 285 µg/mL (≈ 795 µM)
[2]; single IV 0.03 mg/kg
  decrease in leukocyte adhesion compared to vehicle control: 21%
[2]; single IV 0.3 mg/kg
  decrease in leukocyte adhesion compared to vehicle control: 65%
[2]; single IV 3 mg/kg
  decrease in leukocyte adhesion compared to vehicle control: 82%
